According to patent US9216183B2, “Topical treatment for chemotherapy induced eyelash loss or hypotrichosis using prostamide F2 alpha agonists” (ALLERGAN, INC., priority 2002, dated 2015):
Values joined by “and” are separate entries in the source; they are usually repeats but may differ in a detail not shown here. Equal entries are not always repeated.

System: eyelashes of subjects with chemotherapy-induced hypotrichosis
Test: GEA / ESQ Domain 2 responder analysis, 1-year clinical study, chemotherapy-induced hypotrichosis
Type: in vivo, human
Source text: The full 12-month study consisted of 2 distinct 6-month treatment periods, treatment period 1 (TP1) and treatment period 2 (TP2). Eligible post-chemotherapy subjects were randomly assigned in a 3:1 ratio to receive bimatoprost or vehicle for TP1. In TP2, the subjects were either maintained on or switched to bimatoprost treatment. The primary efficacy endpoint was the proportion of treatment responders at month 4 based on a composite endpoint, defined by: a) at least a 1-grade improvement from baseline in the GEA score, and b) at least a 3-point improvement from baseline in the total score for Domain 2 of the ESQ. The GEA is an investigator assessment of eyelash prominence and the ESQ score is patients own perception of their eyelashes. A one-year, multicenter, randomized, double-masked, vehicle-controlled study. Adult post-chemotherapy and idiopathic eyelash hypotrichosis subjects were enrolled based on their score of 1 or 2 on a four point ordinal Global Eyelash Assessment (GEA) scale, and in addition having a low score on a PRO measure associated with 'psychological impact' of the condition, a domain-2 of the Eyelash Satisfaction Questionnaire (ESQ). The study involved two treatment periods of six months each. In the first treatment period, subjects for both populations were randomized 3:1 for QD bimatoprost: vehicle treatment. In the second 6-month treatment period, all subjects were moved to bimatoprost treatment, except for a group of bimatoprost treated idiopathic hypotrichosis subjects (n=55) who were switched to vehicle to investigate the effect of drug discontinuation. The study included 9 visits over the 12-month treatment period. The primary end point was the proportion of responders within each treatment group based on a composite measure of GEA and ESQ Domain-2 (investigator assessed eyelash prominence and subject's assessment of 'psychological impact' related to eyelashes) at month-4. This multicenter, double-masked, randomized, parallel-group study included two 6-month treatment periods. Subjects with idiopathic hypotrichosis were randomized to 3 treatment groups: 1) treatment period 1 (TP1) and TP2: bimatoprost; 2) TP1: bimatoprost; TP2: vehicle; and 3) TP1: vehicle; TP2: bimatoprost. Subjects with chemotherapy-induced hypotrichosis were randomized to 2 treatment groups: 1) TP1: bimatoprost or vehicle; and 2) TP2: bimatoprost. The primary endpoint was a composite of at least a 1-grade improvement in investigator-assessed Global Eyelash Assessment (GEA), and at least a 3-point improvement in subject-reported Eyelash Satisfaction Questionnaire (ESQ) Domain 2 (self-perceived confidence, attractiveness, and professionalism) at month 4. Secondary measures included digitally assessed eyelash characteristics (i.e., eyelash length, fullness, and darkness). Idiopathic hypotrichosis subjects were randomized to 3 treatment arms in a 2:1:1 ratio: bimatoprost during both treatment periods; vehicle in TP1 and bimatoprost in TP2; and bimatoprost in TP1 and vehicle in TP2. Chemotherapy-induced hypotrichosis subjects were randomized in a 3:1 ratio to receive bimatoprost during both treatment periods or vehicle in TP1 followed by bimatoprost in TP2. Male or female subjects at least 18 years of age who met these criteria were eligible for inclusion in the study: a score of 1 or 2 on the clinician-graded global eyelash assessment (“GEA”); a score of 1 (very much disagree) or 2 (disagree) on each of 3 items (16 [confidence], 19 [attractiveness], and 18 [professionalism]) on the subject-assessed eyelash satisfaction questionnaire (“esq”); best-corrected visual acuity (“bcva”) score equivalent to a […] acuity of 20/100 or better in each eye; and intraocular pressure (“iop”) 20 mm hg or less in each eye. […]

[1] = postchemotherapy, Month 4, listed as Bimatoprost
[2] = postchemotherapy, Month 4, listed as bimatoprost
[3] = postchemotherapy, Month 12, bimatoprost throughout

## CCNC(=O)CCC/C=C\C[C@@H]1[C@@H](/C=C/[C@@H](O)CCc2ccccc2)[C@H](O)C[C@@H]1O [Bim 0.03%, bimatoprost]
chemotherapy-induced hypotrichosis, duration of the trial
  GEA response rate (FIG. 9): about 80%
postchemotherapy, Month 1
  Primary composite endpoint responders (≧1-grade GEA and ≧3-point ESQ Domain 2 improvement): (6.3%)
postchemotherapy, Month 2
  Primary composite endpoint responders (≧1-grade GEA and ≧3-point ESQ Domain 2 improvement): (22.9%)
postchemotherapy, Month 4
  Responders with ≧1-grade increase in GEA score: 72.9%
  Responders with ≧2-grade increase in GEA score: 36.5%
  Responders with ≧3-point increase in ESQ Domain 2: 40.6%
[1]
  Primary composite endpoint responders (≧1-grade GEA and ≧3-point ESQ Domain 2 improvement): 37.5%
  Responders with ≧1-grade increase in GEA score: 72.9%
[2]
  Primary composite endpoint responders (≧1-grade GEA and ≧3-point ESQ Domain 2 improvement): 37.5%
  Responders with ≧1-grade increase in GEA score: > 70% and 72.9%
postchemotherapy, Month 4, listed as bimatoprost 0.03%
  Primary composite endpoint responders (≧1-grade GEA and ≧3-point ESQ Domain 2 improvement): 37.5%
postchemotherapy, Month 6
  Responders with ≧1-grade increase in GEA score: 80.2%
  Responders with ≧2-grade increase in GEA score: 45.8%
  Responders with ≧3-point increase in ESQ Domain 2: 47.9%
postchemotherapy, Month 6, listed as Bim/Bim
  Primary composite endpoint responders (≧1-grade GEA and ≧3-point ESQ Domain 2 improvement): 46.9%
postchemotherapy, Month 6, listed as Bimatoprost
  Primary composite endpoint responders (≧1-grade GEA and ≧3-point ESQ Domain 2 improvement): 46.9%
postchemotherapy, Month 6, listed as bimatoprost
  Primary composite endpoint responders (≧1-grade GEA and ≧3-point ESQ Domain 2 improvement): 46.9%
postchemotherapy, Month 10, Veh/Bim (4 months after starting bimatoprost)
  Responders with ≧2-grade increase in GEA score: 50%
postchemotherapy, Month 10, bimatoprost throughout
  Primary composite endpoint responders (≧1-grade GEA and ≧3-point ESQ Domain 2 improvement): 54.2%
postchemotherapy, Month 12, Veh/Bim
  Responders with ≧2-grade increase in GEA score: 52.9%
postchemotherapy, Month 12, bimatoprost for 12 months (Bim/Bim)
  Primary composite endpoint responders (≧1-grade GEA and ≧3-point ESQ Domain 2 improvement): 61.5%
[3]
  Responders with ≧1-grade increase in GEA score: 90.6%
  Responders with ≧3-point increase in ESQ Domain 2: 63.5%
postchemotherapy, Month 12, bimatoprost up to 12 months
  Responders with ≧2-grade increase in GEA score: 57.3%
postchemotherapy, Month 12, vehicle first 6 months then bimatoprost (Veh/Bim)
  Primary composite endpoint responders (≧1-grade GEA and ≧3-point ESQ Domain 2 improvement): 67.6%
postchemotherapy, visit not stated (months 4 and 6 discussed)
  ESQ Domain 2 mean change in total score from baseline: 2.8
